Where two headings read alike, the source gives them in different places.
Columns and labels:
[1] = test system: MGMT; details: some tumor cell lines; von Wronski et al., 1994; cited from earlier work
[2] = test system: D-341; test: Cytotoxicity of BCNU; format: cell-based; details: Homo sapiens, 1 h BCNU, 4 days
Protocol: (§1) The cytotoxicity of BCNU on cultured cells in MET^+ HCY^+ and MET^- HCY^+ was measured by a modification of the method of Branch et. al. (1993) as follows: methionine-dependent cells were seeded and cultured in MET^+ HCY^- in 35 mm petri dishes until they were nearly confluent. The cells were then transferred in MET^- HCY^+ and cultured for an additional 4 to 6 days at which time cell numbers were reduced due to cell death and inhibition of mitosis. Dead cells were removed and medium was replaced on a daily basis. Following this period in MET^- HCY^+ medium, remaining live cells were washed with PBS and then treated with various concentrations of BCNU in PBS for 1 hour at 37° C. while they were still attached. Subsequently, the BCNU was removed, replaced with MET^+ HCY^- medium and cultures were incubated for an additional 4 days at 37° C. in 6% CO2. At that time cells were trypsinized and counted using a Coulter-Counter (Coulter Electronics, Hialeah Fla.). The concentration of the drug that halves the growth rate of the tumor cells (IC50), was determined from plots of BCNU concentrations versus the percent change in cell numbers as compared to untreated controls within a four day interval from treatment (Jackson, 1992). The IC50 of BCNU on methionine-dependent cells cultured in MET^+ HCY^- or methionine independent cells cultured in either media was also determined by the same method.

[3] = test system: Daoy; test: Cytotoxicity of BCNU; format: cell-based; details: Homo sapiens
Protocol: as §1

[4] = test system: H-1623; test: Cytotoxicity of BCNU; format: cell-based; details: Homo sapiens, 1 h BCNU, 4 days
Protocol: as §1

[5] = test system: H-1944; test: Cytotoxicity of BCNU; format: cell-based; details: Homo sapiens, 1 h BCNU, 4 days
Protocol: as §1

[6] = test system: NIH-3T3; test: Cytotoxicity of BCNU; format: cell-based; details: Mus musculus, NIH3T3, 1 h BCNU, 4 days
Protocol: as §1

[7] = test system: U-138; test: Cytotoxicity of BCNU; format: cell-based; details: Homo sapiens, 1 h BCNU, 4 days
Protocol: as §1

[8] = test system: U-87; test: Cytotoxicity of BCNU; format: cell-based; details: Homo sapiens, U-87 MG, U-87 (mer^-), 1 h BCNU, 4 days
Protocol: as §1

[9] = test system: SW-40; test: Cytotoxicity of BCNU; format: cell-based, human; details: for IC50: Homo sapiens, SW-40 (mer^-), 1 h BCNU, 4 days
Protocol: as §1

[10] = test system: MET-independent or mer^- tumor cell lines and normal cells; test: Cytotoxicity of BCNU (summary); format: cell-based; details: MET^- HCY^+ versus MET^+ HCY^-
Protocol: as §1

[11] = test system: Methionine-dependent, mer^+ tumor cells; test: Cytotoxicity of BCNU (summary); format: cell-based; details: Homo sapiens
Protocol: as §1

[12] = test system: MGMT positive tumors; details: prior depletion of MGMT; Dolan et al., 1993; Schold et al., 1996; cited from earlier work
[13] = Plasma methionine and thiols after diet, methionine precursor and methioninase; format: in vivo, nude mice; details: met^- hcy^- chl^- diet, 8 h after precursor 50 mg/kg ip, no methioninase
Protocol: The methionine peak is marked with an asterik.
FIG. 7A: homocysteine thiolactone; FIG. 7B: homocysteine thiolactone+methioninase; FIG. 7C: homocystine; and FIG. 7D: homocystin+methioninase. All animals were killed 6 hours after the injection of the methionine precursor.
^1 Levels of total thiols in circulation 8 hours after injection (ip)
of met precursor and 6 hours after treatment with methioninase. Mean of 3
determinations ± SD. MET precursor was 50 mg/kg; methioninase
(abbreviated METH.) was 1000k U/kg.

[14] = test system: MGMT; details: Daoy; 48 hrs from repletion following 10 days in HCY
Protocol: Detaching cells ascertained to be dead by trypan blue exclusion were removed by changing the medium every 48 hours. Cells were then either trypsinized and reseeded in the same medium or washed with PBS and supplied with the methionine-HCY^+ medium. Due to extensive death in this medium, it was necessary to remove detaching dead cells on a daily basis. Cells from both media were harvested at time intervals indicated and used to measure cell cycle status and MGMT activity. Cells from either cultures (5×10^7) were also harvested, washed with PBS and immediately frozen as a source of protein, DNA and RNA. All cells collected were live (>95%) as determined by trypan blue exclusion.
The [^3 H]DNA substrate for measurements of MGMT activity was synthesized as follows: One mCi ethanolic solution of N-[^3 H]methyl-N-nitrosourea (MNU) having specific activity 18.8 Ci/mmol (Amersham) was concentrated to 0.2 ml with a N2 stream and mixed with 1 ml of DNA solution (5 mg) in 0.02 M 2-amino-2-methyl-1,3-propanediol at pH 10. […]
The [^3 H]DNA contained 29.8 μCi of radioactivity (alkylation efficiency 3%) which was distributed as 3-methyladenine 3.5%, 7-MeG 79.6%, 1-methyladenine 0.6%, O^6 -MeG 9.0% and other adducts 7.3%. The specific activities of 7-MeG and O^6 -MeG were calculated to be 15.8±0.8 and 16.5±0.5 Ci/mmol respectively. […]

[15] = test system: Daoy; details: 48 hrs from repletion following 10 days in HCY
[16] = MET^+ HCY^- culture, read-out: IC50 (MET)
[17] = MET^- HCY^+ culture, read-out: IC50 (HCY)

For `Nc1ncn([C@@H]2O[C@H](CO)[C@@H](O)[C@H]2O)c(=O)n1` [5-azacytidine], the “increase of the MGMT activity” value [1] is given as “substantial increase”.
`O=NN(CCCl)C(=O)NCCCl` [BCNU, 1,3-bis (2-chloroethyl)-1-nitrosourea] gave an IC50 ([2]; D341, MET^+ HCY^- culture, read-out: IC50 (MET)) of 65 µM, an IC50 ([2]; D341, MET^- HCY^+ culture, read-out: IC50 (HCY)) of 10 µM and an IC50 ([3]; MET^+ HCY^- culture, 1 h BCNU, counted after 4 days, read-out: IC50 (MET)) of 45 µM. For the same compound, the IC50 ([3]; cultured in MET^- HCY^+ 4 days before 1 h BCNU, read-out: IC50 (HCY)) was roughly 5 µM, the IC50 ([4]; NCI-H1623, MET^+ HCY^- culture, read-out: IC50 (MET)) was 90 µM and the IC50 ([4]; NCI-H1623, MET^- HCY^+ culture, read-out: IC50 (HCY)) was 10 µM. The IC50 ([5]; NCI-H1944, MET^+ HCY^- culture, read-out: IC50 (MET)) was 65 µM, the IC50 ([5]; NCI-H1944, MET^- HCY^+ culture, read-out: IC50 (HCY)) was 10 µM and the IC50 ([6]; NIH-3T3, control mer+, methionine independent, MET^+ HCY^- culture, read-out: IC50 (MET)) was 35 µM. It also gave an IC50 ([6]; NIH-3T3, MET^- HCY^+ culture, read-out: IC50 (HCY)) of 40 µM, an IC50 [7, 16] of 50 µM and an IC50 [7, 17] of 10 µM. For the same compound, the IC50 [8, 16] was 15 µM, the IC50 [8, 17] was 15 µM and the IC50 [9, 16] was 10 µM. For the same compound, the IC50 [9, 17] was 15 µM, the “resistance to BCNU upon methionine depletion” value ([9]; SWB-40, mer^-, methionine-dependent) was “not affected” and the “sensitivity to BCNU” value [10] was “unaffected”. It also gave an IC50 ([11]; cultured in MET^+ HCY^-) of 45 to 90 µM and an IC50 ([11]; cultured in MET^- HCY^+) of 5 to 10 µM.
For `Nc1nc(OCc2ccccc2)c2[nH]cnc2n1` [O^6 -benzylguanine], the “increase in the efficacy of alkylating drugs such as BCNU” value [12] is given as “Significant increase”.
`NC1CCSC1=O` (centres unmarked) [homocysteine thiolactone] gave a CYS [13] of 100 ± 13 µM, a GSH [13] of 81 µM and an HCY [13] of 20 ± 3 µM. For the same compound, the MET [13] was 12 ± 3 µM.
For `N[C@@H](CCSSCC[C@H](N)C(=O)O)C(=O)O` [homocystine], the CYS [13] was 100 ± 4 µM, the GSH [13] was 56 ± 8 µM and the HCY [13] was 17 ± 2 µM. For the same compound, the MET [13] was 6 ± 2 µM.
In the case of `CSCC[C@H](N)C(=O)O` [methionine], the “recovery of MGMT activity” value [14] is reported as 65 % of the base line and the “doubling time after repletion of methionine” value [15] is reported as 22 h.
